This is an account of results in patent US8883470B2, “Fermentation of carbohydrate” (Anitox Corporation, priority 2009, dated 2014).

In data set [1] the test system is Lactobacillus. To be noted: 600 mg/L, cited from earlier work.
Data set [2] has as its system Yeast.
Method: (§5) After 24 h, 30 g of corn from each treatment was finely ground and added to glass fermenters with water, enzyme and yeast as described below. Lactobacillus plantarum (B-4496) grown in MRS broth was added to the fermentation bottles (0.1 ml of 6.2×10^10 cfu/mL). Samples were taken after 72 hours fermentation for yeast and Lactobacillus counts.
A further data set deals with Wild Lactobacillus. As to the method:
(§1) Wild Lactobacillus and yeast/mold profile were determined in four studies using corn treated with 0 (control), 0.45 and 0.90 Kg/MT Formaldehyde (HCHO). Ground corn and water were mixed and incubated at room temperature (21-23° C.) in an anaerobic environment for 24 hours. To 5 gr of ground corn 45 ml of Butterfield was added and incubated overnight in a closed container while stirring at room temperature. After incubation, samples were taken to enumerate wild yeast/mold and Lactobacillus.

The subject of another data set is wild yeast/mold. How it is done: as §1
Data set [3] relates to Lactobacillus plantarum (B-4496). To be noted: control also 0. As to the method: (§2) Whole corn obtained from a commercial source was treated with formalin (37% formaldehyde solution) at 0, 0.9, 1.8 and 2.7 kg/MT. After 24 h, 30 g of corn from each treatment was finely ground and added to glass fermenters with water, enzyme and yeast as described below. Lactobacillus plantarum (B-4496) grown in MRS broth was added to the fermentation bottles (0.2 ml of 6.2×10^5 cfu/g). Samples were taken after 72 hours fermentation for yeast and Lactobacillus counts. The whole content of the fermentations bottles were centrifuged for 30 minutes at 5000 rpm, filtered through cheesecloth and through a 0.45 u tilter to quantify ethanol production. Treatments are listed on the following table

Data set [4] deals with Yeast. As to the method: as §2
This is another data set of the same source.

Data set [5] deals with Lactobacillus plantarum (B-4496).
Method: as §5
Data set [6] has as its system Lactobacillus. How it is done: (§3) Ethanol production and microbiological profile were analyzed in four fermentation studies using corn treated with 0 (control), 0.45 and 0.90 Kg/MT Formaldehyde. Ground corn and water were mixed and incubated at room temperature in a air-tight 250-ml fermenter jars for 6 hours. This was done in order to increase the naturally occurring Lactobacillus in corn. Previous studies have shown that the level of Lactobacillus is less than 100 cfu/gr in corn. The other reagents were added into the fermenters as described in the following table.
(§4) After the addition of all the reagents, fermenters were sealed with a cap containing a water trap. Fermenters were kept under constant stirring (low speed) at room temperature (21-23° C.) for 72 hours before sampling for yeast, Lactobacillus and alcohol production. Lactobacillus counts were determined on MRS broth containing 1.5% Difco™ Agar. Plates were incubated in an anaerobic chamber at 37-C for 48 hours and colonies enumerated. Yeast counts were determined on PDA plates. Plates were incubated at 27° C. for 48 hours and colonies enumerated. Alcohol was determined by FT-IR (FOSS system).

In data set [7] the test system is Yeast. As to the method: as §3, §4
This is another data set of the same source.

For the next data set, the system named is yeast populations. To be noted: 100 to 400 mg/L; cited from earlier work.
Data set [8] relates to Yeast. To be noted: cited from earlier work.
Data set [9] deals with Yeast. To be noted: 8 g/L; beet molasses batch fermentation; cited from earlier work.
The test system of data set [10] is Lactobacillus. To be noted: during fermentation; cited from earlier work.

Like-named read-outs stand apart in the source and are kept apart here.

As for `O=C(O)CCC(=O)O` [Succinic acid], the “reduction of Lactobacillus concentrations” value is on record as 78% with Lactobacillus [1] (by itself) and “up to 96%” in the data set on Lactobacillus [1] (in the presence of ethanol).
In the case of `C=O` [Formaldehyde, formaldehyde], the “Yeast (cfu/ml) 72 h” value is reported as 8.8 × 10^8 cfu/ml in the data set with Yeast [2] (0.9 kg/MT); 6.6 × 10^8 cfu/ml in the data set with Yeast [2] (1.8 kg/MT); 8.0 × 10^8 cfu/ml with Yeast [2] (2.7 kg/MT); 9.50 × 10^8 cfu/ml with Yeast [4] (0.9 kg/MT); 6.60 × 10^8 cfu/ml in the data set with Yeast [4] (1.8 kg/MT); 4.20 × 10^8 cfu/ml in the data set with Yeast [4] (2.7 kg/MT). The “Lactobacillus (cfu/gr) after 24-h Incubation” value with Wild Lactobacillus (0.45 kg/MT, Study 1) is 4.0 × 10^5 cfu/gr; in the data set on Wild Lactobacillus (0.45 kg/MT, Study 2), 9.3 × 10^5 cfu/gr; in the data set on Wild Lactobacillus (0.45 kg/MT, Study 3), 2.9 × 10^4 cfu/gr; in the data set on Wild Lactobacillus (0.45 kg/MT, Study 4), 7.7 × 10^5 cfu/gr; in the data set with Wild Lactobacillus (0.9 kg/MT, Study 1), 6.2 × 10^4 cfu/gr; in the data set on Wild Lactobacillus (0.9 kg/MT, Study 2), 1.2 × 10^4 cfu/gr. Besides, the “Lactobacillus (cfu/gr) after 24-h Incubation” value is listed as 9.0 × 10^3 cfu/gr in the data set on Wild Lactobacillus (0.9 kg/MT, Study 3) and 8.1 × 10^4 cfu/gr with Wild Lactobacillus (0.9 kg/MT, Study 4). The “Yeast (cfu/gr) after 24-h Incubation” value in the data set on wild yeast/mold (0.45 kg/MT, Study 1) was 3.0 × 10^5 cfu/gr; in the data set on wild yeast/mold (0.45 kg/MT, Study 2), 7.0 × 10^5 cfu/gr; with wild yeast/mold (0.45 kg/MT, Study 3), 1.6 × 10^5 cfu/gr; in the data set on wild yeast/mold (0.45 kg/MT, Study 4) it was 3.2 × 10^5 cfu/gr; with wild yeast/mold (0.9 kg/MT, Study 1), 7.6 × 10^4 cfu/gr; with wild yeast/mold (0.9 kg/MT, Study 2) it was 5.6 × 10^6 cfu/gr. In addition, the “Yeast (cfu/gr) after 24-h Incubation” value is 2.0 × 10^3 cfu/gr with wild yeast/mold (0.9 kg/MT, Study 3) and 2.6 × 10^5 cfu/gr in the data set on wild yeast/mold (0.9 kg/MT, Study 4). For the same molecule, the “Lactobacillus (cfu/ml) 72 h” value in data set [3] (0.9 kg/MT) is 0 cfu/ml; in [3] (1.8 kg/MT), 0 cfu/ml; in data set [3] (2.7 kg/MT), 0 cfu/ml; in data set [5] (0.9 kg/MT), 9.8 × 10^7 cfu/ml; in data set [5] (1.8 kg/MT) it was 4.7 × 10^7 cfu/ml; in data set [5] (2.7 kg/MT), 3.7 × 10^7 cfu/ml. The “decrease in cfu's of Lactobacillus” value in data set [5] (Lactobacillus added at higher concentrations) was determined as 1 log. The “Lactobacillus (cfu/gr) after 72-h Fermentation” value with Lactobacillus [6] (0.45 kg/MT, Study 9) was 8.5 × 10^8 cfu/gr; with Lactobacillus [6] (0.45 kg/MT, Study 10), 5.2 × 10^8 cfu/gr; in the data set with Lactobacillus [6] (0.45 kg/MT, Study 12), 8.9 × 10^8 cfu/gr; in the data set with Lactobacillus [6] (0.9 kg/MT, Study 9), 7.4 × 10^8 cfu/gr; with Lactobacillus [6] (0.9 kg/MT, Study 10), 4.3 × 10^8 cfu/gr; with Lactobacillus [6] (0.9 kg/MT, Study 12), 9.4 × 10^8 cfu/gr. Also, the “Yeast (cfu/gr) after 72-h Fermentation” value is listed as 9.5 × 10^8 cfu/gr with Yeast [7] (0.45 kg/MT, Study 9); 1.2 × 10^9 cfu/gr in the data set on Yeast [7] (0.45 kg/MT, Study 10); 4.7 × 10^9 cfu/gr with Yeast [7] (0.45 kg/MT, Study 11); 1.8 × 10^9 cfu/gr in the data set on Yeast [7] (0.45 kg/MT, Study 12); 7.4 × 10^8 cfu/gr in the data set on Yeast [7] (0.9 kg/MT, Study 9); 1.1 × 10^9 cfu/gr in the data set on Yeast [7] (0.9 kg/MT, Study 10). The “Yeast (cfu/gr) after 72-h Fermentation” value is on record as 3.6 × 10^9 cfu/gr in the data set on Yeast [7] (0.9 kg/MT, Study 11) and 1.8 × 10^9 cfu/gr in the data set with Yeast [7] (0.9 kg/MT, Study 12).
In the case of `O=S(O)O` [sulfite], the “effect on yeast populations” value with yeast populations is on record as “did not affect yeast populations”.
As for virginiamycin, the “inhibition of the yeast” value with Yeast [8] was “does not significantly inhibit the yeast”.
Consider `CC(O)C(=O)O` (centres unmarked) [lactic acid], for which, in the data set on Yeast [9], the “reduction of alcohol production rate” value is 80% and the “reduction of yeast viability” value is listed as 95%.
With `NC(N)=O.OO` [UHP, Urea hydrogen peroxide], in the data set with Lactobacillus [10], the “bactericidal activity against Lactobacillus” value is “excellent bactericidal activity”.
